Measurements: ChEMBL document CHEMBL5143638, “Natural aloe emodin-hybridized sulfonamide aminophosphates as novel potential membrane-perturbing and DNA-intercalating agents against Enterococcus faecalis” (Bioorg Med Chem Lett, 2022)
In brackets after ≈: the same amount, converted by molar mass. Activity calls are given as the source filed them. No cut-off for these calls is given here.

Legend:
Klebsiella pneumoniae = assay: Antibacterial activity against Klebsiella pneumoniae assessed as inhibition of bacterial growth measured after 24 hrs by CLSI based broth microdilution method; format: functional
Enterococcus faecalis [1] = assay: Antibacterial activity against Enterococcus faecalis assessed as inhibition of bacterial growth measured after 24 hrs by CLSI based broth microdilution method; format: functional
Staphylococcus aureus [2] = assay: Antibacterial activity against methicillin-resistant Staphylococcus aureus N315 assessed as inhibition of bacterial growth measured after 24 hrs by CLSI based broth microdilution method; format: functional
Staphylococcus aureus [3] = assay: Antibacterial activity against Staphylococcus aureus assessed as inhibition of bacterial growth measured after 24 hrs by CLSI based broth microdilution method; format: functional
Staphylococcus aureus [4] = assay: Antibacterial activity against Staphylococcus aureus ATCC 25923 assessed as inhibition of bacterial growth measured after 24 hrs by CLSI based broth microdilution method; format: functional
Escherichia coli [5] = assay: Antibacterial activity against Escherichia coli assessed as inhibition of bacterial growth measured after 24 hrs by CLSI based broth microdilution method; format: functional
Escherichia coli [6] = assay: Antibacterial activity against Escherichia coli ATCC 25922 assessed as inhibition of bacterial growth measured after 24 hrs by CLSI based broth microdilution method; format: functional
Pseudomonas aeruginosa [7] = assay: Antibacterial activity against Pseudomonas aeruginosa assessed as inhibition of bacterial growth measured after 24 hrs by CLSI based broth microdilution method; format: functional
Pseudomonas aeruginosa [8] = assay: Antibacterial activity against Pseudomonas aeruginosa ATCC 27853 assessed as inhibition of bacterial growth measured after 24 hrs by CLSI based broth microdilution method; format: functional
Acinetobacter baumannii = assay: Antibacterial activity against Acinetobacter baumannii assessed as inhibition of bacterial growth measured after 24 hrs by CLSI based broth microdilution method; format: functional
Enterococcus faecalis [9] = assay: Bactericidal activity against Enterococcus faecalis assessed as reduction in colony forming units at 4 times MIC measured after 1.5 to 6 hrs by time-kill kinetics assay; format: functional; conditions: time 1.5-6 hrs
Erythrocyte [10] = assay: Hemolytic activity in human RBC at 512 ug/ml incubated for 2 hrs by microplate reader analysis; format: toxicity, cell-based; conditions: dose 512 µg/ml
Erythrocyte [11] = assay: Hemolytic activity in human RBC assessed as morphological changes at 512 ug/ml incubated for 2 hrs by microscopic analysis; format: toxicity, cell-based; conditions: dose 512 µg/ml
Cell membrane [12] = assay: Disruption of membrane integrity in Escherichia coli ATCC 25922 assessed as membrane damage by measuring PI fluorescence at 1 to 8 times MIC incubated for 8 hrs by PI staining based analysis; format: subcellular
Cell membrane [13] = assay: Disruption of membrane integrity in Enterococcus faecalis assessed as membrane damage by measuring PI fluorescence at 1 to 8 times MIC incubated for 8 hrs by PI staining based analysis; format: subcellular
Cell membrane [14] = assay: Disruption of membrane integrity in Enterococcus faecalis assessed as membrane damage by measuring PI-DNA complex formation at 2 times MIC incubated for 20 to 200 mins by PI staining based analysis; conditions: time 20-200 min, TDE = time-dependent effect
Cell membrane [15] = assay: Disruption of membrane integrity in Enterococcus faecalis assessed as membrane damage by measuring increase in red fluorescence at 2 to 8 times MIC incubated for 8 hrs by PI staining based fluorescence microscopic analysis; format: subcellular
Cell membrane [16] = assay: Induction of membrane depolarization in Enterococcus faecalis assessed as increase in fluorescence intensity at 1 times MIC measured after 10 to 60 mins by diSC35 dye based fluorescence assay; format: subcellular; conditions: time 10-60 min, TDE = time-dependent effect
Cell membrane [17] = assay: Induction of membrane damage in Enterococcus faecalis assessed as increase in protein leakage measured after 6 hrs by Bradford assay; format: subcellular; conditions: DDE = dose-dependent effect
Enterococcus faecalis [18] = assay: Antibiofilm activity against Enterococcus faecalis assessed as reduction in biofilm formation at MIC measured after 24 hrs by crystal violet staining based analysis relative to control; format: functional; design: scale not given: the % may be the effect or the level left
Enterococcus faecalis [19] = assay: Antibiofilm activity against Enterococcus faecalis assessed as reduction in biofilm formation at upto 8 times MIC measured after 24 hrs by crystal violet staining based analysis relative to control; format: functional; design: scale not given: the % may be the effect or the level left
Enterococcus faecalis [20] = assay: Induction of intracellular ROS production in Enterococcus faecalis assessed as fold increase in intracellular ROS level at 0.25 ug/ml incubated for 6 hrs by DCFH-DA assay relative to control; format: functional; conditions: dose 0.25 µg/ml
Enterococcus faecalis [21] = assay: Induction of intracellular ROS production in Enterococcus faecalis assessed as fold increase in intracellular ROS level at 2 ug/ml incubated for 6 hrs by DCFH-DA assay relative to control; format: functional; conditions: dose 2 µg/ml
Calf thymus DNA [22] = assay: Binding affinity to calf thymus DNA assessed as compound-DNA complex formation by measuring hypochromic shift by UV-visible absorption spectrophotometric method; format: nucleic-acid assay; conditions: Bos taurus
Calf thymus DNA [23] = assay: Binding affinity to calf thymus DNA assessed as DNA intercalation by neutral red dye uptake method; format: nucleic-acid assay; conditions: Bos taurus
Staphylococcus aureus [24] = assay: Potency index, ratio of norfloxacin MIC to test compound MIC for antibacterial activity against methicillin-resistant Staphylococcus aureus N315 assessed as inhibition of bacterial growth measured after 24 hrs by CLSI based broth microdilution method; format: functional
Staphylococcus aureus [25] = assay: Potency index, ratio of sulfisoxazole MIC to test compound MIC for antibacterial activity against Staphylococcus aureus assessed as inhibition of bacterial growth measured after 24 hrs by CLSI based broth microdilution method; format: functional
Staphylococcus aureus [26] = assay: Potency index, ratio of norfloxacin MIC to test compound MIC for antibacterial activity against Staphylococcus aureus assessed as inhibition of bacterial growth measured after 24 hrs by CLSI based broth microdilution method; format: functional

## CCOP(=O)(OCC)C(Nc1ccc(S(=O)(=O)Nc2ncccn2)cc1)c1cc(O)c2c(c1)C(=O)c1cccc(O)c1C2=O (stereo not drawn)
Klebsiella pneumoniae
  MIC: 0.5 µg/mL (≈ 0.783 µM)
Enterococcus faecalis [1]
  MIC: 0.25 µg/mL (≈ 0.391 µM)
Staphylococcus aureus [2]
  MIC: 8 µg/mL (≈ 12.5 µM)
Staphylococcus aureus [3]
  MIC: 128 µg/mL (≈ 200 µM)
Staphylococcus aureus [4]
  MIC: 2 µg/mL (≈ 3.13 µM)
Escherichia coli [5]
  MIC: 2 µg/mL (≈ 3.13 µM)
Escherichia coli [6]
  MIC: 0.25 µg/mL (≈ 0.391 µM)
Pseudomonas aeruginosa [7]
  MIC: 8 µg/mL (≈ 12.5 µM)
Pseudomonas aeruginosa [8]
  MIC: 0.25 µg/mL (≈ 0.391 µM)
Acinetobacter baumannii
  MIC: 16 µg/mL (≈ 25.1 µM)
Enterococcus faecalis [9]
  Activity: 3 log10CFU/ml
Erythrocyte [10]
  Activity: Non-Toxic
Erythrocyte [11]
  Activity: Non-Toxic
Cell membrane [12]
  Activity: Active
Cell membrane [13]
  Activity: Active
Cell membrane [14]
  Activity: Tde
Cell membrane [15]
  Activity: Active
Cell membrane [16]
  Activity: Tde
Cell membrane [17]
  Activity: Dde
Enterococcus faecalis [18]
  Activity: 30%
Enterococcus faecalis [19]
  Activity: <=79%
Enterococcus faecalis [20]
  fold change (FC): 1.2
Enterococcus faecalis [21]
  fold change (FC): 2.4
Calf thymus DNA [22]
  Activity: Active
Calf thymus DNA [23]
  Activity: Active

## CCOP(=O)(OCC)C(Nc1ccc(S(=O)(=O)Nc2ccccn2)cc1)c1cc(O)c2c(c1)C(=O)c1cccc(O)c1C2=O (stereo not drawn)
Klebsiella pneumoniae
  MIC: 256 µg/mL (≈ 402 µM)
Enterococcus faecalis [1]
  MIC: 64 µg/mL (≈ 100 µM)
Staphylococcus aureus [2]
  MIC: 2 µg/mL (≈ 3.14 µM)
Staphylococcus aureus [3]
  MIC: 64 µg/mL (≈ 100 µM)
Staphylococcus aureus [4]
  MIC: 128 µg/mL (≈ 201 µM)
Escherichia coli [5]
  MIC: 256 µg/mL (≈ 402 µM)
Escherichia coli [6]
  MIC: 256 µg/mL (≈ 402 µM)
Pseudomonas aeruginosa [7]
  MIC: 256 µg/mL (≈ 402 µM)
Pseudomonas aeruginosa [8]
  MIC: 64 µg/mL (≈ 100 µM)
Acinetobacter baumannii
  MIC: 128 µg/mL (≈ 201 µM)
Staphylococcus aureus [24]
  Ratio: 4

## CCCCOP(=O)(OCCCC)C(Nc1ccc(S(=O)(=O)Nc2onc(C)c2C)cc1)c1cc(O)c2c(c1)C(=O)c1cccc(O)c1C2=O (stereo not drawn)
Klebsiella pneumoniae
  MIC: 16 µg/mL (≈ 22.5 µM)
Enterococcus faecalis [1]
  MIC: 128 µg/mL (≈ 180 µM)
Staphylococcus aureus [2]
  MIC: 64 µg/mL (≈ 89.9 µM)
Staphylococcus aureus [3]
  MIC: 4 µg/mL (≈ 5.62 µM)
Staphylococcus aureus [4]
  MIC: 2 µg/mL (≈ 2.81 µM)
Escherichia coli [5]
  MIC: 256 µg/mL (≈ 360 µM)
Escherichia coli [6]
  MIC: 8 µg/mL (≈ 11.2 µM)
Pseudomonas aeruginosa [7]
  MIC: 8 µg/mL (≈ 11.2 µM)
Pseudomonas aeruginosa [8]
  MIC: 256 µg/mL (≈ 360 µM)
Acinetobacter baumannii
  MIC: 8 µg/mL (≈ 11.2 µM)
Staphylococcus aureus [25]
  Ratio: 4
Staphylococcus aureus [26]
  Ratio: 2
